Source: patent US20100063047A1 (KALYPSYS, INC., priority 2008, published 2010)

Columns and labels:
human H1 = target: T1, human H1 (Homo sapiens, UniProt P35367); experiment: In vitro histamine H1 receptor cell-based aequorin bioluminescence antagonist assay; settings: CHO-K1 cells expressing human H1 and aequorin; histamine at EC80; read-out: H1 Antagonist EC50
T1 construct: host or cells: CHO-K1, also expressing mitochondrion-targeted aequorin
Procedure, shortened: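 CHO-K1 cells stably expressing human H1 or H4 plus mitochondrial aequorin (H4 also with Gα16), loaded with 5 μM coelenterazine-h for 4 h at ~21 °C. Compounds preincubated 15 min at room temperature, then histamine at EC80 added.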

human H4 = target: T2, human H4 (Homo sapiens, UniProt Q9H3N8); experiment: In vitro histamine H4 receptor cell-based aequorin bioluminescence antagonist assay; settings: CHO-K1 cells expressing human H4, aequorin and Gα16; histamine at EC80
T2 construct: host or cells: CHO-K1, also expressing mitochondrion-targeted aequorin and human Gα16
Protocol: In vitro Histamine Receptor Cell-Based Assays
The cell-based assays utilize an aequorin dependent bioluminescence signal. Doubly-transfected, stable CHO—K1 cell lines expressing human H1 or H4, mitochondrion-targeted aequorin, and (H4 only) human G protein Gα16 are obtained from Perkin-Elmer. Cells are maintained in F12 (Ham's) growth medium, containing 10% (vol./vol.) fetal bovine serum, penicillin (100 IU/mL), streptomycin (0.1 mg/mL), zeocin (0.25 mg/mL) and geneticin (0.40 mg/mL). Cell media components are from Invitrogen, Inc. One day prior to assay, the growth medium is replaced with the same, excluding zeocin and geneticin.
For assay preparation, growth medium is aspirated, and cells are rinsed with calcium-free, magnesium-free phosphate-buffered saline, followed by two to three minute incubation in Versene (Invitrogen, Inc.) at 37° C. Assay medium (DMEM:F12 [50:50], phenol-red free, containing 1 mg/mL protease-free bovine serum albumin) is added to collect the released cells, which are then centrifuged. The cell pellet is re-suspended in assay medium, centrifuged once more, and re-suspended in assay medium to a final density of 5×10^6 cells/mL. Coelenterazine-h dye (500 μM in ethanol) is added to a final concentration of 5 μM, and mixed immediately. The conical tube containing the cells is then wrapped with foil to protect the light-sensitive dye. The cells are incubated for four hours further at room temperature (approximately 21° C.) with end-over-end rotation to keep them in suspension.
Just before assay, the dye-loaded cells are diluted to 0.75×10^6 cells/mL (H1 receptor) or 1.5×10^6 cells/mL (H4 receptor) with additional assay medium. Cells are dispensed to 1536 well micro-titer plates at 3 μL/well. To assay receptor antagonism, 60 nl of 100× concentration test compounds in 100% dimethyl sulfoxide (DMSO) are dispensed to the wells, one compound per well, by passive pin transfer, and the plates are incubated for 15 minutes at room temperature. […] The pipette dispenses 3 μL/well of agonist (histamine, at twice the final concentration, where final concentration is a previously determined EC80) in assay medium, with concurrent bioluminescence detection. Agonist activity of test compounds is excluded by separate assays that measure response to test compounds immediately, without added histamine agonist.
CCD image capture on the Lumilux includes a 5 second baseline read prior to agonist addition, and generally a 40 second read per plate after agonist addition. A decrease in bioluminescence signal (measured either as area-under-the-curve, or maximum signal amplitude minus minimum signal amplitude) correlates with receptor antagonism in a dose dependent manner. The negative control is DMSO lacking any test compound. For antagonist assays, the positive controls are diphenhydramine (2-Diphenylmethoxy-N,N-dimethylethylamine, 10 μM final concentration, H1 receptor) or JNJ7777120 (1-[(5-Chloro-1H-indol-2-yl)carbonyl]-4-methyl-piperazine, 10 μM final concentration, H4 receptor). Efficacy is measured as a percentage of positive control activity.

T1 sequence (P35367 whole entry): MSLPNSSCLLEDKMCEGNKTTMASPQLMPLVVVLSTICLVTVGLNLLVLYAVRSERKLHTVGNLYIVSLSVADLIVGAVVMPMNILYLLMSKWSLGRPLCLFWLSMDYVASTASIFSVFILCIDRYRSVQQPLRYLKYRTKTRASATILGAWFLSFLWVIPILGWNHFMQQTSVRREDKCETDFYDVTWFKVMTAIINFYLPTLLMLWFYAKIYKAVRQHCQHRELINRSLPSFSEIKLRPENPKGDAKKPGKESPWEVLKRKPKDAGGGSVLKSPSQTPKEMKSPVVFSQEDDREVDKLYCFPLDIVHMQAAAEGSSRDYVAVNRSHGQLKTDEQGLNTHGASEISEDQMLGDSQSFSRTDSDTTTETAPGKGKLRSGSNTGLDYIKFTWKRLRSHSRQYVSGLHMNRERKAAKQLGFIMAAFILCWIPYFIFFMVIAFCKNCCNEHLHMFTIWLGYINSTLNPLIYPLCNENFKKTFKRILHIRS

| EC50 (human H1) | EC50 (human H4) | Compound |
| --- | --- | --- |
| > 10 µM | > 10 µM | Cc1csc2ncnc(N3CCN(c4ccc(F)cc4F)CC3)c12 [Example 267, 1-(2,4-difluorophenyl)-4-{5-methylthieno[2,3-d]pyrimidin-4-yl}piperazine] |
| > 10 µM | > 10 µM | Cc1csc2ncnc(NCC(C)C)c12 [Example 61, 5-methyl-N-(2-methylpropyl)thieno[2,3-d]pyrimidin-4-amine] |
| > 10 µM | > 10 µM | CCN(CCO)c1ncnc2scc(C)c12 [Example 188, 2-[ethyl({5-methylthieno[2,3-d]pyrimidin-4-yl})amino]ethan-1-ol] |
| > 10 µM | > 10 µM | CCN(CCCCO)c1ncnc2scc(C)c12 [Example 207, 4-[ethyl({5-methylthieno[2,3-d]pyrimidin-4-yl})amino]butan-1-ol] |
| > 10 µM | > 10 µM | Cc1csc2ncnc(N(CCO)[C@H](C)c3ccccc3)c12 [Example 236, 2-({5-methylthieno[2,3-d]pyrimidin-4-yl}[(1R)-1-phenylethyl]amino)ethan-1-ol] |
| > 10 µM | > 10 µM | Cc1csc2ncnc(NCc3cccnc3)c12 [Example 84, 5-methyl-N-(pyridin-3-ylmethyl)thieno[2,3-d]pyrimidin-4-amine] |
| > 10 µM | > 10 µM | Cc1csc2ncnc(N3CCN(C4CCCCC4)CC3)c12 [Example 239, 1-cyclohexyl-4-{5-methylthieno[2,3-d]pyrimidin-4-yl}piperazine] |
| > 10 µM | > 10 µM | Cc1csc2ncnc(N3CCN(c4ccccc4F)CC3)c12 [Example 245, 1-(2-fluorophenyl)-4-{5-methylthieno[2,3-d]pyrimidin-4-yl}piperazine] |
| > 10 µM | > 10 µM | Cc1csc2ncnc(N3CCC(C)CC3)c12 [Example 191, 4-methyl-1-{5-methylthieno[2,3-d]pyrimidin-4-yl}piperidine] |
| > 10 µM | > 10 µM | Cc1csc2ncnc(N(C)CCO)c12 [Example 183, 2-[methyl({5-methylthieno[2,3-d]pyrimidin-4-yl})amino]ethan-1-ol] |
| > 10 µM | > 10 µM | CCN(CC)c1ncnc2scc(C)c12 [Example 181, N,N-diethyl-5-methylthieno[2,3-d]pyrimidin-4-amine] |
| > 10 µM | > 10 µM | Cc1csc2ncnc(N3CCN(c4ccccn4)CC3)c12 [Example 234, 1-{5-methylthieno[2,3-d]pyrimidin-4-yl}-4-(pyridin-2-yl)piperazine] |
| > 10 µM | > 10 µM | Cc1csc2ncnc(NC(C)CO)c12 (stereo not drawn) [Example 63, 2-({5-methylthieno[2,3-d]pyrimidin-4-yl}amino)propan-1-ol] |
| > 10 µM | > 10 µM | Cc1csc2ncnc(N(CCC#N)Cc3cccnc3)c12 [Example 232, 3-({5-methylthieno[2,3-d]pyrimidin-4-yl}(pyridin-3-ylmethyl)amino)propanenitrile] |
| > 10 µM | > 10 µM | Cc1csc2ncnc(N3CCC(C(N)=O)CC3)c12 [Example 211, 1-{5-methylthieno[2,3-d]pyrimidin-4-yl}piperidine-4-carboxamide] |
| > 10 µM | > 10 µM | Cc1csc2ncnc(N(Cc3ccccc3)C(C)C)c12 [Example 225, N-benzyl-5-methyl-N-(propan-2-yl)thieno[2,3-d]pyrimidin-4-amine] |
| > 10 µM | > 10 µM | COc1cccc(N2CCN(c3ncnc4scc(C)c34)CC2)c1 [Example 263, 1-(3-methoxyphenyl)-4-{5-methylthieno[2,3-d]pyrimidin-4-yl}piperazine] |
| > 10 µM | > 10 µM | COCCNc1ncnc2scc(C)c12 [Example 64, N-(2-methoxyethyl)-5-methylthieno[2,3-d]pyrimidin-4-amine] |

| EC50 (human H1) | EC50 (human H4) | Compound |
| --- | --- | --- |
| > 10 µM | > 10 µM | Cc1csc2ncnc(CC(=O)Nc3ccc(Cl)cc3)c12 [Example 33, N-(4-chlorophenyl)-2-(5-methylthieno[2,3-d]pyrimidin-4-yl)acetamide] |
| > 10 µM | > 10 µM | Cc1csc2ncnc(NCC3(O)CCCCC3)c12 [Example 158, 1-[({5-methylthieno[2,3-d]pyrimidin-4-yl}amino)methyl]cyclohexan-1-ol] |
| > 10 µM | > 10 µM | Cc1cccc(N2CCN(c3ncnc4scc(C)c34)CC2)c1C [Example 254, 1-(2,3-dimethylphenyl)-4-{5-methylthieno[2,3-d]pyrimidin-4-yl}piperazine] |
| > 10 µM | > 10 µM | COc1ccc(N2CCN(c3ncnc4scc(C)c34)CC2)cc1 [Example 261, 1-(4-methoxyphenyl)-4-{5-methylthieno[2,3-d]pyrimidin-4-yl}piperazine] |
| > 10 µM | > 10 µM | CNc1ncnc2scc(C)c12 [Example 49, N,5-dimethylthieno[2,3-d]pyrimidin-4-amine] |
| > 10 µM | > 10 µM | Cc1csc2ncnc(NCCC3CCCN3C)c12 (stereo not drawn) [Example 106, 5-methyl-N-[2-(1-methylpyrrolidin-2-yl)ethyl]thieno[2,3-d]pyrimidin-4-amine] |
| > 10 µM | > 10 µM | CC(=O)N[C@H]1CCN(c2ncnc3scc(C)c23)C1 [Example 212, N-[(3S)-1-{5-methylthieno[2,3-d]pyrimidin-4-yl}pyrrolidin-3-yl]acetamide] |
| > 10 µM | > 10 µM | CCN(CC)CCCC(C)Nc1ncnc2scc(C)c12 (stereo not drawn) [Example 151, diethyl[4-({5-methylthieno[2,3-d]pyrimidin-4-yl}amino)pentyl]amine] |
| > 10 µM | > 10 µM | Cc1csc2ncnc(N3CCC(O)(c4ccc(Cl)cc4)CC3)c12 [Example 280, 4-(4-chlorophenyl)-1-{5-methylthieno[2,3-d]pyrimidin-4-yl}piperidin-4-ol] |
| > 10 µM | > 10 µM | CCCN(CCC)c1ncnc2scc(C)c12 [Example 196, 5-methyl-N,N-dipropylthieno[2,3-d]pyrimidin-4-amine] |
| > 10 µM | > 10 µM | C=CCN(c1ncnc2scc(C)c12)C1CCCCC1 [Example 223, N-cyclohexyl-5-methyl-N-(prop-2-en-1-yl)thieno[2,3-d]pyrimidin-4-amine] |
| > 10 µM | > 10 µM | Cc1csc2ncnc(N(C)C(Cc3ccccc3)c3ccccc3)c12 (stereo not drawn) [Example 278, N-(1,2-diphenylethyl)-N,5-dimethylthieno[2,3-d]pyrimidin-4-amine] |
| > 10 µM | > 10 µM | CCCN(C)c1ncnc2scc(C)c12 [Example 182, N,5-dimethyl-N-propylthieno[2,3-d]pyrimidin-4-amine] |
| > 10 µM | > 10 µM | Cc1csc2ncnc(CCNc3ccc(Cl)cc3)c12 [Example 32, 4-chloro-N-(2-(5-methylthieno[2,3-d]pyrimidin-4-yl)ethyl)aniline] |
| > 10 µM | > 10 µM | Cc1csc2ncnc(NCCCn3ccnc3)c12 [Example 105, N-[3-(1H-imidazol-1-yl)propyl]-5-methylthieno[2,3-d]pyrimidin-4-amine] |
| > 10 µM | > 10 µM | Cc1csc2ncnc(N3CCN(c4ccc(F)cc4)CC3)c12 [Example 246, 1-(4-fluorophenyl)-4-{5-methylthieno[2,3-d]pyrimidin-4-yl}piperazine] |
| > 10 µM | > 10 µM | Cc1csc2ncnc(NC3CONC3=O)c12 (stereo not drawn) [Example 80, 4-({5-methylthieno[2,3-d]pyrimidin-4-yl}amino)-1,2-oxazolidin-3-one] |
| > 10 µM | > 10 µM | Cc1csc2ncnc(NCCC#N)c12 [Example 57, 3-({5-methylthieno[2,3-d]pyrimidin-4-yl}amino)propanenitrile] |
